From patent US5492822A, “Method for recovering purified 100,000 dalton molecular weight fraction of human pancreatic cholesterol esterase” (Lange, III; Louis G., priority 1995, dated 1996)

What was measured:
[1] = biological target: T1, human pancreatic cholesterol esterase (100 kDa) (Homo sapiens, UniProt P19835); experiment: Triolein hydrolysis by human pancreatic cholesterol esterase (100 kDa); type: biochemical
T1 construct: from tissue; host or cells: human pancreas (autopsy)
T1 sequence (P19835 21-753): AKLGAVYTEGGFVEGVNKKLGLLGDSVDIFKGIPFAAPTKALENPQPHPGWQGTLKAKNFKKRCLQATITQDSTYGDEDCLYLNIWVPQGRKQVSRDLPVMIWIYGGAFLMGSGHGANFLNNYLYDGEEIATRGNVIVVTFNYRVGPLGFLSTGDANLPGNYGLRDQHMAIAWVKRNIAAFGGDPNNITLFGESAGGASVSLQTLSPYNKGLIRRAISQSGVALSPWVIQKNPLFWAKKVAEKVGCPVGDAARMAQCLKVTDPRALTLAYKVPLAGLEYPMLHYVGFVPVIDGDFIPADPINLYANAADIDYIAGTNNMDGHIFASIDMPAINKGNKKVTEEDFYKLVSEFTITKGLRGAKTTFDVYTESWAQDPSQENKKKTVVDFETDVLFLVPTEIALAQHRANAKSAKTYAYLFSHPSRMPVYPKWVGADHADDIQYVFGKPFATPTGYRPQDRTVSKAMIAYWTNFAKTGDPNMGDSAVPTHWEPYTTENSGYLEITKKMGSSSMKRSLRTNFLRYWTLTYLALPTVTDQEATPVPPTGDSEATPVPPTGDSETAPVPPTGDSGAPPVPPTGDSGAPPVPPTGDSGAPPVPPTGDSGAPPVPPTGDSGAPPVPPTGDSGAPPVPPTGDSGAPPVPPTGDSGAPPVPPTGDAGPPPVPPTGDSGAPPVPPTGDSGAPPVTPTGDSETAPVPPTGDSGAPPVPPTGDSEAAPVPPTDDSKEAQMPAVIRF
Text: (§1) Human pancreatic cholesterol esterase (100 kDa) and human pancreatic triglyceride lipase (52 kDa) were purified to homogeneity (Examples 1 and 3), and their abilities to cleave triglycerides and cholesteryl esters were compared. […] Virtually the same results were found with cholesteryl esters; the 100 kDa enzyme cleaved cholesterol oleate at a rate at least 490-fold greater than that found for the 52 kDa triglyceride lipase.

[2] = biological target: T2, human pancreatic cholesterol esterase (Homo sapiens, UniProt P19835); experiment: Binding of 125I-cholesterol esterase to small intestine vesicles and its displacement
T2 construct: from tissue; host or cells: human pancreas (autopsy)
T2 sequence (P19835 21-753): T1 sequence (P19835 21-753)
Protocol: (§2) Vesicles contained 1.0 mg protein/ml, 30 ug total cholesterol/mg protein and 50 ug endogenous heparin/mg protein. ^125 I-cholesterol esterase (100K or 67K form) was added (0 to 400 pmol; 2,000 dpm/pmol) to 100 ug of protein of small intestine vesicles in 10 mM Tris-Cl, pH 7.2 for 15 min. at 37°. The concentration of offered ^125 I-cholesterol esterase varied between 10 nM and 1 uM. Experiments were performed utilizing 1% blotto to decrease nonspecific protein binding to the vesicles. After the 15 minute incubation at 37°, the reaction was quenched and the assay mixtures were filtered through wells of a Millipore system containing 0.2 micron pore filters presoaked in buffer. The filtrate was-collected to assess free (unbound) enzyme, and the filters were then immediately washed with 15 ml of cold buffer and counted for ^125 I. Total binding was defined as ^125 I-dpm bound to filter paper minus ^125 I-dpm detected in the same reaction without vesicles (background). Nonspecific binding (radioactivity bound to the vesicles in the presence of excess cold ligand) was quantitated as the amount of ^125 I-cholesterol esterase binding in the presence of a 1000-fold molar excess of unlabeled cholesterol esterase as described above. Specific binding is defined as the difference between total bound dpm and nonspecific-bound dpm (converted to moles bound by dividing by the SRA).

[3] = test system: human pancreatic cholesterol esterase; experiment: as above
Protocol: as §2

[4] = biological target: T3, human pancreatic triglyceride lipase (52 kDa) (Homo sapiens, UniProt P16233); experiment: Triolein hydrolysis by human pancreatic triglyceride lipase (52 kDa); type: biochemical
T3 sequence (P16233 17-465): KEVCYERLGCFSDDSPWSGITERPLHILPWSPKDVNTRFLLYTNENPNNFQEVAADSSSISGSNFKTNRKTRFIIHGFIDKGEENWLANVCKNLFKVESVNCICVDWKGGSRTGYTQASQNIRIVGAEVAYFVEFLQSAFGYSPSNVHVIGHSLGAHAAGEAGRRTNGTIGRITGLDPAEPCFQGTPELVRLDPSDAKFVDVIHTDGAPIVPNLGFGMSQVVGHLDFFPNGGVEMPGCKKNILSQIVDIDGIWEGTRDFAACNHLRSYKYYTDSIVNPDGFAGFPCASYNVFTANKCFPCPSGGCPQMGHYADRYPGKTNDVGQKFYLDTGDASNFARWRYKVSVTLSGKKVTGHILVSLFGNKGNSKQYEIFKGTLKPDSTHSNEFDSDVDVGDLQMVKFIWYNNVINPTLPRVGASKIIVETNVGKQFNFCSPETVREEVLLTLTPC
Text: as §1

[5] = biological target: T2, human pancreatic cholesterol esterase; experiment: Elution of human pancreatic cholesterol esterase bound to heparin immobilized on Sepharose; type: binding; conditions: 5 mg/ml chondroitin sulfate
[6] = test system: small intestine membrane vesicles (membrane-bound heparin); experiment: Binding of 125I-labeled bovine pancreatic enzymes to small intestine membrane vesicles; conditions: 125I-labeled bovine pancreatic enzyme, 1% Blotto
Protocol: as §2, with “Exogenous heparin inhibits the interaction and binding of pancreatic choleserol esterase to small intestine vesicles prepared from proximal small intestine segments homogenized in 10 mM Tris-Cl, pH 7.2, and centrifuged at 48,000 X g for 45 minutes. Vesicles” for “Vesicles”, “After the 15 minute incubation at 37°, the reaction was quenched and the assay mixtures were filtered through wells of a Millipore system containing 0.2 micron pore filters presoaked in buffer.” left out, “Specific binding is defined as the difference between total bound dpm and nonspecific-bound dpm (converted to moles bound by dividing by the SRA).” left out

CaCo cells = experiment: Cellular uptake of [14C]oleate from [14C]triolein; type: cell-based; conditions: at eight hours
Protocol: Confluent monolayers of 2×10^6 CaCo cells (Example 5b) were incubated with 2 mM taurocholate and with [^14 C]triolein (5 uM) embedded in phosphatidylcholine vesicles. In the absence of triglyceride lipase, cellular uptake of [^14 C] oleate was linear and at eight hours was 204 pmol. In the presence of human triglyceride lipase (25 nM) and colipase (400 nM), uptake was brisk, reaching 706 pmol at eight hours. Moreover, enzyme-mediated uptake was also dependent on the presence of colipase in the medium, since uptake was only 229 pmol at eight hours in its absence. Heparin (400 uM) added to medium containing triglyceride lipase and colipase reduced uptake from 706 pmol to 329 pmol at eight hours. Thus, heparin decreased cellular uptake of oleate (oleic acid) from cleaved triglyceride by 75%.

[7] = Cholesterol ester synthesis versus hydrolysis by the 52K form; type: biochemical, human
Protocol: Human pancreatic cholesterol esterase (52K form) can be isolated as follows. Cytosol prepared as above from 30 g pancreas is dialyzed versus 10 mM Tris-Cl, 50 mM benzamidine, pH 8.2 and then chromatographed over DEAE cellulose (2.6×25 cm). Unlike the higher molecular weight forms of cholesterol esterase which bind under these conditions, the 52K species rapidly passes through DEAE cellulose at pH 8.2, with a 40-fold purification and 80% yield. Subsequent chromatography over hydroxylapatite and heparin-Sepharose yields a homogeneous protein (SDS-PAGE, M.W.=52K) with enzymatic activity expressed principally in the synthetic direction for cholesterol esters (rate of synthesis/rate of hydrolysis=10/1). This species also cross-reacts in western blotting to anti-cholesterol esterase antibodies.

## [Cl-].[Na+] [NaCl, reference compound]
[1]; 0.15 M NaCl
  effect on triolein hydrolysis by the 100 kDa esterase: unaffected
[2]; 150 mM NaCl
  displacement of cholesterol esterase from vesicles: ineffective
[3]; isotonic saline
  effect on specific binding of 125I-cholesterol esterase to vesicles: no effect
[4]; 0.15 M NaCl
  inhibition of triolein hydrolysis by the 52 kDa enzyme: 68%

## chondroitin sulfate
[5]
  elution of bound enzyme from heparin-Sepharose: completely ineffective
[2]; 10 mg/ml chondroitin sulfate
  displacement of cholesterol esterase from vesicles: ineffective
[3]; 0.5 to 100-fold molar excesses
  decrease of specific binding of 125I-cholesterol esterase to vesicles: less than 10%

## phospholipase A2: bovine pancreatic phospholipase A2 radiolabeled with Na125I
[6]
  binding to small intestine membrane vesicles / membrane-bound heparin: do not bind

B1: Human pancreatic cholesterol esterase (52K form): 52K protein isolated as in Example 3; called triglyceride lipase in Example 10 (protein, UniProt P16233 17-465, looked up)
Pancreatic triacylglycerol …: T3 sequence (P16233 17-465)
CaCo cells; human triglyceride lipase 25 nM and colipase 400 nM
  cellular uptake of [14C]oleate: 706 pmol
CaCo cells; triglyceride lipase in the absence of colipase
  cellular uptake of [14C]oleate: 229 pmol
[7]
  rate of synthesis/rate of hydrolysis of cholesterol esters: 10/1
[4]; homogeneous 52 kDa enzyme
  rate of triolein hydrolysis: 27 nmol/hr/g pancreas

B2: colipase: cofactor protein added to triglyceride lipase (protein, UniProt P04118 23-112, looked up)
Colipase: GIIINLENGELCMNSAQCKSNCCQHSSALGLARCTSMASENSECSVKTLYGIYYKCPCERGLTCEGDKTIVGSITNTNFGICHDAGRSKQ
[1]; 50-fold molar excess of colipase
  effect on triolein hydrolysis by the 100 kDa esterase: unaffected
[4]; 10-fold excess of colipase
  stimulation of triolein hydrolysis by the 52 kDa enzyme: 375%
